# Assay results as given in ChEMBL document CHEMBL1143210, “2-Substituted 4-, 5-, and 6-[(1E)-3-oxo-3-phenylprop-1-en-1-yl]pyridazin-3(2H)-ones and 2-substituted 4,5-bis[(1E)-3-oxo-3-phenylprop-1-en-1-yl]pyridazin-3(2H)-ones as potent platelet aggregation inhibitors: design, synthesis, and SAR studies” (Bioorg Med Chem Lett, 2008).
# Tested on: Blood
# Experiment: Inhibition of thrombin-induced platelet aggregation in human blood at 100 uM by turbidimetric method
# Type: functional
row,Compound,inhibition at 100 µM [%]
1,O=C(/C=C/c1ccnn(Cc2ccccc2)c1=O)c1ccccc1,40

# Tested on: Blood
# Experiment: Inhibition of thrombin-induced platelet aggregation in human blood by turbidimetric method
# Type: functional, tissue-based
row,Compound,IC50 [µM]
1,O=C(/C=C/c1cnn(Cc2ccccc2)c(=O)c1)c1ccccc1,4.2
2,CN1CC(/C=C/C(=O)c2ccccc2)=C(/C=C/C(=O)c2ccccc2)C=N1,6.15
3,O=C(/C=C/C1=C(/C=C/C(=O)c2ccccc2)CN(c2ccccc2)N=C1)c1ccccc1,1.98
4,Cn1nc(/C=C/C(=O)c2ccccc2)ccc1=O,13.4
5,O=C(/C=C/c1ccnn(-c2ccccc2)c1=O)c1ccccc1,17.6
6,Cn1ncc(/C=C/C(=O)c2ccccc2)cc1=O,15.7
7,Cn1nccc(/C=C/C(=O)c2ccccc2)c1=O,37.1
8,O=C(/C=C/c1ccccc1)c1ccccc1 [CHALCONE],163
9,O=C(/C=C/c1cnn(-c2ccccc2)c(=O)c1)c1ccccc1,3.3
10,Cc1[nH]c(=O)c(C#N)cc1-c1ccncc1 [MILRINONE],4.7
11,O=C(/C=C/c1ccc(=O)n(-c2ccccc2)n1)c1ccccc1,12
12,O=C1C(CC[S+]([O-])c2ccccc2)C(=O)N(c2ccccc2)N1c1ccccc1 (centres undefined) [SULFINPYRAZONE],509
13,O=C(/C=C/c1ccc(=O)n(Cc2ccccc2)n1)c1ccccc1,60
